Where two headings read alike, the source gives them in different places.
Columns and labels:
human GLP-1 receptor = molecular target: T1, human GLP-1 receptor (Homo sapiens, UniProt P43220); test: GLP-1 receptor binding: competitive binding assay (125I-GLP-1, SPA) on isolated membranes at low and high HSA
T1 construct: expressed in transfected cells; host or cells: BHK cells (parent line BHKTS13), clone FCW467-12A; membrane preparation

in vivo = details: male, Göttingen, minipig, iv
Protocol: The purpose of this study is to determine the protraction in vivo of the GLP-1 derivatives after i.v. administration to minipigs, i.e. the prolongation of their time in the body and thereby their time of action. This is done in a pharmacokinetic (PK) study, where the terminal half-life of the derivative in question is determined. By terminal half-life is meant the time it takes to halve a certain plasma concentration in the terminal elimination phase.
Male Göttingen minipigs were obtained from Ellegaard Göttingen Minipigs (Dalmose, Denmark) approximately 7-14 months of age and weighing approximately 16-35 kg were used in the studies. The minipigs were housed either individually (pigs with permanent catheters) or in a group and fed restrictedly once or twice daily with SDS minipig diet (Special Diets Services, Essex, UK).
After at least 2 weeks of acclimatisation two permanent central venous catheters were implanted in vena cava caudalis or cranialis in each animal. The animals were allowed 1 week recovery after the surgery, and were then used for repeated pharmacokinetic studies with a suitable wash-out period between successive GLP-1 derivative dosings.
Blood samples (for example 0.8 ml) were collected in EDTA buffer (8 mM) and then centrifuged at 4° C. and 1942G for 10 minutes.
Plasma was pipetted into Micronic tubes on dry ice, and kept at −20° C. until analysed for plasma concentration of the respective GLP-1 compound using LOCI. Individual plasma concentration-time profiles were analyzed by a non-compartmental pharmacokinetic method in Phoenix v. 6.2 (Pharsight Inc., Mountain View, Calif., USA), or other relevant software for PK analysis, and the resulting terminal half-lives (harmonic mean) determined.

[1] = high HSA (2.0% final assay concentration), read-out: High HSA IC50
[2] = low HSA (max. 0.001% final assay concentration), read-out: Low HSA IC50

T1 sequence (P43220 24-463): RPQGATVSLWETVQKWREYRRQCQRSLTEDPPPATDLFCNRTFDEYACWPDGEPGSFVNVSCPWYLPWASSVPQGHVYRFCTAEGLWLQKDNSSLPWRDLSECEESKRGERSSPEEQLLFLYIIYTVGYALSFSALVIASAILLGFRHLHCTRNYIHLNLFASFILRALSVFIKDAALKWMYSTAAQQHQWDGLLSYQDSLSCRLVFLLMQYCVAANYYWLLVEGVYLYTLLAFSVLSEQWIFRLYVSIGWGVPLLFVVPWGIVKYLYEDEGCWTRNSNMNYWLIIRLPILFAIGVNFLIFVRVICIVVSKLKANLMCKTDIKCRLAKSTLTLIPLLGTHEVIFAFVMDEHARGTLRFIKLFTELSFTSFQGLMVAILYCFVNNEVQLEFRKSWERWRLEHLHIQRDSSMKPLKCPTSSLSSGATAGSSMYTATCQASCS

Compound | IC50 (human GLP-1 receptor; [1]) [nM] | IC50 (human GLP-1 receptor; [2]) [nM] | half-life (in vivo) [h]
CC[C@H](C)[C@H](NC(=O)[C@H](Cc1ccccc1)NC(=O)[C@H](CCC(=O)O)NC(=O)[C@H](CCCNC(=N)N)NC(=O)[C@H](C)NC(=O)[C@H](C)NC(=O)[C@H](CCC(N)=O)NC(=O)[C@H](CCC(=O)O)NC(=O)[C@H](CCC(=O)O)NC(=O)[C@H](CC(C)C)NC(=O)[C@H](Cc1ccc(O)cc1)NC(=O)[C@H](CO)NC(=O)[C@H](CO)NC(=O)[C@@H](NC(=O)[C@H](CC(=O)O)NC(=O)[C@H](CO)NC(=O)[C@@H](NC(=O)[C@H](Cc1ccccc1)NC(=O)[C@@H](NC(=O)CNC(=O)[C@H](CCC(=O)O)NC(=O)C(C)(C)NC(=O)[C@@H](N)Cc1c[nH]cn1)[C@@H](C)O)[C@@H](C)O)C(C)C)C(=O)N[C@@H](C)C(=O)N[C@@H](Cc1c[nH]c2ccccc12)C(=O)N[C@@H](CC(C)C)C(=O)N[C@H](C(=O)N[C@@H](CCCNC(=N)N)C(=O)NCC(=O)N[C@@H](CCCNC(=N)N)C(=O)N[C@@H](CCCCNC(=O)CN(CCCNC(=O)COCCOCCNC(=O)COCCOCCNC(=O)COCCOCCNC(=O)COCCOCCNC(=O)[C@@H](N)CCCCNC(=O)[C@@H](N)CCCCNC(=O)CCCCCCCCCCCCCCCCCCC(=O)O)CCCNC(=O)COCCOCCNC(=O)COCCOCCNC(=O)COCCOCCNC(=O)COCCOCCNC(=O)[C@@H](N)CCCCNC(=O)[C@@H](N)CCCCNC(=O)CCCCCCCCCCCCCCCCCCC(=O)O)C(=O)O)C(C)C [Example 2, N{Epsilon-37}-[2-[bis[3-[[2-[2-[2-[[2-[2-[2-[[2-[2-[2-[[2-[2-[2-[[(2S)-2-amino-6-[[(2S)-2-amino-6-(19-carboxynonadecanoylamino)hexanoyl]amino]hexanoyl]amino]ethoxy]ethoxy]acetyl]amino]ethoxy]ethoxy]acetyl]amino]ethoxy]ethoxy]acetyl]amino]ethoxy]ethoxy]acetyl]amino]propyl]amino]acetyl]-[Aib8,Glu22,Arg26,Arg34,Lys37]-GLP-1-(7-37)-peptide] | 11 | 0.19 | 113
CC[C@H](C)[C@H](NC(=O)[C@H](Cc1ccccc1)NC(=O)[C@H](CCC(=O)O)NC(=O)[C@H](CCCNC(=N)N)NC(=O)[C@H](C)NC(=O)[C@H](C)NC(=O)[C@H](CCC(N)=O)NC(=O)[C@H](CCC(=O)O)NC(=O)[C@H](CCC(=O)O)NC(=O)[C@H](CC(C)C)NC(=O)[C@H](Cc1ccc(O)cc1)NC(=O)[C@H](CO)NC(=O)[C@H](CO)NC(=O)[C@@H](NC(=O)[C@H](CC(=O)O)NC(=O)[C@H](CO)NC(=O)[C@@H](NC(=O)[C@H](Cc1ccccc1)NC(=O)[C@@H](NC(=O)CNC(=O)[C@H](CCC(=O)O)NC(=O)C(C)(C)NC(=O)[C@@H](N)Cc1c[nH]cn1)[C@@H](C)O)[C@@H](C)O)C(C)C)C(=O)N[C@@H](C)C(=O)N[C@@H](Cc1c[nH]c2ccccc12)C(=O)N[C@@H](CC(C)C)C(=O)N[C@H](C(=O)N[C@@H](CCCNC(=N)N)C(=O)NCC(=O)N[C@@H](CCCNC(=N)N)C(=O)N[C@@H](CCCCNC(=O)CN(CCCNC(=O)CCOCCOCCOCCOCCNC(=O)CCOCCOCCOCCOCCNC(=O)CCOCCOCCOCCOCCNC(=O)[C@@H](N)CCCCNC(=O)[C@@H](N)CCCCNC(=O)CCCCCCCCCCCCCCCCCCC(=O)O)CCCNC(=O)CCOCCOCCOCCOCCNC(=O)CCOCCOCCOCCOCCNC(=O)CCOCCOCCOCCOCCNC(=O)[C@@H](N)CCCCNC(=O)[C@@H](N)CCCCNC(=O)CCCCCCCCCCCCCCCCCCC(=O)O)C(=O)O)C(C)C [Example 5, N{Epsilon-37}-[2-[bis[3-[3-[2-[2-[2-[2-[3-[2-[2-[2-[2-[3-[2-[2-[2-[2-[[(2S)-2-amino-6-[[(2S)-2-amino-6-(19-carboxynonadecanoylamino)hexanoyl]amino]hexanoyl]amino]ethoxy]ethoxy]ethoxy]ethoxy]propanoylamino]ethoxy]ethoxy]ethoxy]ethoxy]propanoylamino]ethoxy]ethoxy]ethoxy]ethoxy]propanoylamino]propyl]amino]acetyl]-[Aib8,Glu22,Arg26,Arg34,Lys37]-GLP-1-(7-37)-peptide] | – | – | 122
CC[C@H](C)[C@H](NC(=O)[C@H](Cc1ccccc1)NC(=O)[C@H](CCC(=O)O)NC(=O)[C@H](CCCNC(=N)N)NC(=O)[C@H](C)NC(=O)[C@H](C)NC(=O)[C@H](CCC(N)=O)NC(=O)[C@H](CCC(=O)O)NC(=O)[C@H](CCC(=O)O)NC(=O)[C@H](CC(C)C)NC(=O)[C@H](Cc1ccc(O)cc1)NC(=O)[C@H](CO)NC(=O)[C@H](CO)NC(=O)[C@@H](NC(=O)[C@H](CC(=O)O)NC(=O)[C@H](CO)NC(=O)[C@@H](NC(=O)[C@H](Cc1ccccc1)NC(=O)[C@@H](NC(=O)CNC(=O)[C@H](CCC(=O)O)NC(=O)C(C)(C)NC(=O)[C@@H](N)Cc1c[nH]cn1)[C@@H](C)O)[C@@H](C)O)C(C)C)C(=O)N[C@@H](C)C(=O)N[C@@H](Cc1c[nH]c2ccccc12)C(=O)N[C@@H](CC(C)C)C(=O)N[C@H](C(=O)N[C@@H](CCCNC(=N)N)C(=O)NCC(=O)N[C@@H](CCCNC(=N)N)C(=O)N[C@@H](CCCCNC(=O)COCCOCCNC(=O)COCCOCCNC(=O)COCCOCCNC(=O)COCCOCCNC(=O)COCCOCCNC(=O)COCCOCCNC(=O)CN(CCCNC(=O)CC[C@H](NC(=O)CCCCCCCCCCCCCCCCCCC(=O)O)C(=O)O)CCCNC(=O)CC[C@H](NC(=O)CCCCCCCCCCCCCCCCCCC(=O)O)C(=O)O)C(=O)O)C(C)C [Example 26, N{Epsilon-37}-[2-[2-[2-[[2-[2-[2-[[2-[2-[2-[[2-[2-[2-[[2-[2-[2-[[2-[2-[2-[[2-[bis[3-[[(4S)-4-carboxy-4-(19-carboxynonadecanoylamino)butanoyl]amino]propyl]amino]acetyl]amino]ethoxy]ethoxy]acetyl]amino]ethoxy]ethoxy]acetyl]amino]ethoxy]ethoxy]acetyl]amino]ethoxy]ethoxy]acetyl]amino]ethoxy]ethoxy]acetyl]amino]ethoxy]ethoxy]acetyl]-[Aib8,Glu22,Arg26,Arg34,Lys37]-GLP-1-(7-37)-peptide] | 29 | 0.36 | 131
CC[C@H](C)[C@H](NC(=O)[C@H](Cc1ccccc1)NC(=O)[C@H](CCC(=O)O)NC(=O)[C@H](CCCNC(=N)N)NC(=O)[C@H](C)NC(=O)[C@H](C)NC(=O)[C@H](CCC(N)=O)NC(=O)[C@H](CCC(=O)O)NC(=O)[C@H](CCC(=O)O)NC(=O)[C@H](CC(C)C)NC(=O)[C@H](Cc1ccc(O)cc1)NC(=O)[C@H](CO)NC(=O)[C@H](CO)NC(=O)[C@@H](NC(=O)[C@H](CC(=O)O)NC(=O)[C@H](CO)NC(=O)[C@@H](NC(=O)[C@H](Cc1ccccc1)NC(=O)[C@@H](NC(=O)CNC(=O)[C@H](CCC(=O)O)NC(=O)C(C)(C)NC(=O)[C@@H](N)Cc1c[nH]cn1)[C@@H](C)O)[C@@H](C)O)C(C)C)C(=O)N[C@@H](C)C(=O)N[C@@H](Cc1c[nH]c2ccccc12)C(=O)N[C@@H](CC(C)C)C(=O)N[C@H](C(=O)N[C@@H](CCCNC(=N)N)C(=O)NCC(=O)N[C@@H](CCCNC(=N)N)C(=O)N[C@@H](CCCCNC(=O)CN(CCCNC(=O)COCCOCCNC(=O)COCCOCCNC(=O)COCCOCCNC(=O)COCCOCCNC(=O)COCCOCCNC(=O)[C@@H](N)CCCCNC(=O)[C@@H](N)CCCCNC(=O)CCCCCCCCCCCCCCCCCCC(=O)O)CCCNC(=O)COCCOCCNC(=O)COCCOCCNC(=O)COCCOCCNC(=O)COCCOCCNC(=O)COCCOCCNC(=O)[C@@H](N)CCCCNC(=O)[C@@H](N)CCCCNC(=O)CCCCCCCCCCCCCCCCCCC(=O)O)C(=O)O)C(C)C [Example 1, N{Epsilon-37}-[2-[bis[3-[[2-[2-[2-[[2-[2-[2-[[2-[2-[2-[[2-[2-[2-[[2-[2-[2-[[(2S)-2-amino-6-[[(2S)-2-amino-6-(19-carboxynonadecanoylamino)hexanoyl]amino]hexanoyl]amino]ethoxy]ethoxy]acetyl]amino]ethoxy]ethoxy]acetyl]amino]ethoxy]ethoxy]acetyl]amino]ethoxy]ethoxy]acetyl]amino]ethoxy]ethoxy]acetyl]amino]propyl]amino]acetyl]-[Ab8,Glu22,Arg26,Arg34,Lys37]-GLP-1-(7-37)-peptide] | – | – | 130
CC[C@H](C)[C@H](NC(=O)[C@H](Cc1ccccc1)NC(=O)[C@H](CCC(=O)O)NC(=O)[C@H](CCCNC(=N)N)NC(=O)[C@H](C)NC(=O)[C@H](C)NC(=O)[C@H](CCC(N)=O)NC(=O)[C@H](CCC(=O)O)NC(=O)[C@H](CCC(=O)O)NC(=O)[C@H](CC(C)C)NC(=O)[C@H](Cc1ccc(O)cc1)NC(=O)[C@H](CO)NC(=O)[C@H](CO)NC(=O)[C@@H](NC(=O)[C@H](CC(=O)O)NC(=O)[C@H](CO)NC(=O)[C@@H](NC(=O)[C@H](Cc1ccccc1)NC(=O)[C@@H](NC(=O)CNC(=O)[C@H](CCC(=O)O)NC(=O)C(C)(C)NC(=O)CCc1cnc[nH]1)[C@@H](C)O)[C@@H](C)O)C(C)C)C(=O)N[C@@H](C)C(=O)N[C@@H](Cc1c[nH]c2ccccc12)C(=O)N[C@@H](CC(C)C)C(=O)N[C@H](C(=O)N[C@@H](CCCNC(=N)N)C(=O)NCC(=O)N[C@@H](CCCNC(=N)N)C(=O)N[C@@H](CCCCNC(=O)CN(CCCNC(=O)COCCOCCNC(=O)COCCOCCNC(=O)COCCOCCNC(=O)COCCOCCNC(=O)[C@@H](N)CCCCNC(=O)[C@@H](N)CCCCNC(=O)CCCCCCCCCCCCCCCCCCC(=O)O)CCCNC(=O)COCCOCCNC(=O)COCCOCCNC(=O)COCCOCCNC(=O)COCCOCCNC(=O)[C@@H](N)CCCCNC(=O)[C@@H](N)CCCCNC(=O)CCCCCCCCCCCCCCCCCCC(=O)O)C(=O)O)C(C)C [Example 4] | – | 0.13 | 243
